In PubChem BioAssay (NCI) one finds TGI and GI50 data, which are given here for seven compounds.

Test systems include COLO 205 colon; DMS 273 small cell lung; NCI-H460 lung; RPMI-8226 leukemia; SF-268 CNS; SK-MEL-2 melanoma; SK-MEL-28 melanoma; SNB-78 CNS; SW-620 colon; HS 578T breast.
Common to all, as to test: NCI anticancer screen, dose series, 48 h

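Step 1: Grow cells in 96-well plates. Step 2: Expose to compound for 48 hours at 5 concentrations. Step 3: Interpolate endpoints linearly; if unreached, use highest concentration. The concentration for 50% growth inhibition is given as GI50. At the TGI there is no net growth.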

For `CC1(C)OC(=O)C=C([O-])O1.CC1(C)OC(=O)C=C([O-])O1.O=c1c(O)c(-c2ccc([O-])cc2[O-])oc2cc(O)cc(O)c12.[Ti+4]`, the TGI with COLO 205 colon is more than 100 µM; with DMS 273 small cell lung it was more than 100 µM; in the test on NCI-H460 lung, more than 100 µM; in the test with RPMI-8226 leukemia, more than 100 µM; in the test with SF-268 CNS it was 95.5 µM; in the test on SK-MEL-2 melanoma it was 67.5 µM. The TGI in the test on SK-MEL-28 melanoma, in the test on SNB-78 CNS and with SW-620 colon was more than 100 µM in each case. Further, the GI50 with DMS 273 small cell lung was 32.2 µM; with RPMI-8226 leukemia, 59 µM; in the test on SNB-78 CNS, more than 100 µM.

For the compound `COc1ccc(C(=O)C(C(=O)CCC(=O)Nc2cccc(C(F)(F)F)c2)c2ccccc2)cc1` (stereo not drawn), the TGI in the test on COLO 205 colon, in the test on DMS 273 small cell lung, in the test with NCI-H460 lung, in the test with RPMI-8226 leukemia, in the test with SF-268 CNS and in the test on SK-MEL-2 melanoma was more than 100 µM throughout. In addition, the TGI in the test with SK-MEL-28 melanoma, with SNB-78 CNS and in the test on SW-620 colon was more than 100 µM throughout.

Turning to `CC(=O)c1c(C)n([O-])c2cc(C)c(C)cc2[n+]1=O`, the TGI in the test on COLO 205 colon, with DMS 273 small cell lung, in the test with NCI-H460 lung, in the test on RPMI-8226 leukemia, with SF-268 CNS and with SK-MEL-2 melanoma was more than 100 µM throughout. Also, the TGI in the test on SK-MEL-28 melanoma, with SNB-78 CNS and in the test with SW-620 colon was more than 100 µM each time.

Take `Clc1ccc(CNc2nc3ccccc3nc2-c2cccs2)c(Cl)c1`: the TGI in the test with COLO 205 colon, in the test with DMS 273 small cell lung, in the test on NCI-H460 lung, with RPMI-8226 leukemia, with SF-268 CNS and in the test with SK-MEL-2 melanoma was more than 100 µM each time. For the same compound, the TGI in the test on SK-MEL-28 melanoma, in the test with SNB-78 CNS and in the test on SW-620 colon was more than 100 µM each time.

For `COc1ccc2c(-c3cc4ccccc4o3)cc(=O)oc2c1`, the TGI with COLO 205 colon was more than 100 µM; with DMS 273 small cell lung, more than 100 µM; in the test on HS 578T breast, 43.6 µM; in the test on NCI-H460 lung it was more than 100 µM; in the test on RPMI-8226 leukemia, more than 100 µM; in the test on SF-268 CNS it was more than 94 µM. Moreover, the TGI in the test on SK-MEL-2 melanoma, in the test on SK-MEL-28 melanoma, in the test with SNB-78 CNS and with SW-620 colon was more than 100 µM each time.

Consider `CC(C)(C)c1nc2c(o1)C(=Nc1ccc(F)cc1)c1ccccc1C2=O`, for which the TGI in the test on COLO 205 colon is 30.7 µM; with DMS 273 small cell lung, 10.5 µM; with HS 578T breast, more than 45.7 µM; in the test on NCI-H460 lung it was 21.5 µM; in the test on RPMI-8226 leukemia, more than 100 µM; in the test on SF-268 CNS, more than 62.9 µM. Further, the TGI with SK-MEL-2 melanoma was 8.03 µM; with SK-MEL-28 melanoma, 26 µM; with SNB-78 CNS, more than 100 µM; in the test with SW-620 colon, 30 µM.

Take `COc1ccc(C2=NC(C)(C)CO2)cc1`: the TGI with COLO 205 colon, in the test on DMS 273 small cell lung, in the test with NCI-H460 lung, with RPMI-8226 leukemia, in the test on SF-268 CNS and with SK-MEL-2 melanoma was more than 100 µM throughout. Further, the TGI in the test on SK-MEL-28 melanoma, with SNB-78 CNS and with SW-620 colon was more than 100 µM in each case.
